Experimental data taken from US9617602B2, “Methods and compositions for determining resistance to androgen receptor therapy” (Aragon Pharmaceuticals, Inc., priority 2012, dated 2017).

How the values were obtained:
LNCaP/AR(cs) cells [1] = experiment: Endogenous gene transcriptional assay (real-time PCR of androgen responsive genes); type: cell-based, human;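 for ORM1 expression, agonist transcription: LNCaP/AR(cs) cells without added R1881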;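 for PLD1 expression, agonist transcription: LNCaP/AR(cs) cells without added R1881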;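 for PSA expression, agonist transcription: LNCaP/AR(cs) cells without added R1881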;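 for SLUG expression, agonist transcription: LNCaP/AR(cs) cells without added R1881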;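 for TMPRSS2 expression, agonist transcription: LNCaP/AR(cs) cells without added R1881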
Procedure: Total RNA was isolated using the Aurum™ total RNA isolation kit (BIO-RAD, Hercules, Calif.). RNA (1 μg) was reverse transcribed using the iScript cDNA synthesis kit (BIO-RAD, Hercules, Calif.) to produce cDNA. Real-time PCR was performed using the Applied Biosystems 7900HT instrument and SYBR Green PCR Master Mix (Applied Biosystems, Foster City, Calif.). PCR reactions were performed in 6 μL according to the manufacturer's protocol and a thermocycle protocol of 95° C. for 10 minutes followed by 40 cycles of 95° C. for 15 seconds and 58° C. for 1 minute. Androgen responsive gene (PSA, SLUG, TMPRSS2, STEAP4, FKBP5, ORM1, NOV, FASN, NKX3.1, AMIGO2, BDNF, CAMK2N1, HPGD, NCAPD3, PLD1) expression was normalized to GAPDH expression and expressed relative to vehicle treatment of the parental cell line.
Gene expression was normalized to GAPDH as described above.

[2] = system: LNCaP/AR(cs) xenograft tumors; experiment: Tumor xenograft in castrated SHO male mice; type: in vivo
LNCaP/AR(cs) cells [3] = experiment: Proliferation assay (CellTiter-Glo), agonist and antagonist mode; type: cell-based, human
LNCaP cells = experiment: as above; type: cell-based, human
[4] = Table 4A, 1 nM R1881 or 30 μM compound, vehicle=1.00

CNC(=O)c1ccc(N2C(=S)N(c3cnc(C#N)c(C(F)(F)F)c3)C(=O)C23CCC3)cc1F [ARN-509]
ORM1 gene expression (LNCaP/AR(cs) cells [1]; [4]): 0.84 | PLD1 gene expression (LNCaP/AR(cs) cells [1]; [4]): 1.04 | PSA gene expression (LNCaP/AR(cs) cells [1]; [4]): 1.43 | SLUG gene expression (LNCaP/AR(cs) cells [1]; [4]): 1.03 | STEAP4 gene expression (LNCaP/AR(cs) cells [1]; [4]): 0.90 | TMPRSS2 gene expression (LNCaP/AR(cs) cells [1]; [4]): 1.06 | AMIGO2 expression, agonist transcription (LNCaP/AR(cs) cells [1]; −R1881, 0.3 μM): 1.14 | BDNF expression, agonist transcription (LNCaP/AR(cs) cells [1]; −R1881, 0.3 μM): 1.15 | CAM2KN1 expression, agonist transcription (LNCaP/AR(cs) cells [1]; −R1881, 0.3 μM): 0.90 | FASN expression, agonist transcription (LNCaP/AR(cs) cells [1]; −R1881, 0.3 μM): 0.46 | FKBP5 expression, agonist transcription (LNCaP/AR(cs) cells [1]; −R1881, 0.3 μM): 0.99 | HPGD expression, agonist transcription (LNCaP/AR(cs) cells [1]; −R1881, 0.3 μM): 0.81 | NCAPD3 expression, agonist transcription (LNCaP/AR(cs) cells [1]; −R1881, 0.3 μM): 0.72 | NKX3.1 expression, agonist transcription (LNCaP/AR(cs) cells [1]; −R1881, 0.3 μM): 1.11 | NOV expression, agonist transcription (LNCaP/AR(cs) cells [1]; −R1881, 0.3 μM): 1.12 | ORM1 expression, agonist transcription (LNCaP/AR(cs) cells [1]; −R1881, 0.3 μM): 1.37 | PLD1 expression, agonist transcription (LNCaP/AR(cs) cells [1]; −R1881, 0.3 μM): 1.28 | PSA expression, agonist transcription (LNCaP/AR(cs) cells [1]; −R1881, 0.3 μM): 0.44 | SLUG expression, agonist transcription (LNCaP/AR(cs) cells [1]; −R1881, 0.3 μM): 0.38 | STEAP4 expression, agonist transcription (LNCaP/AR(cs) cells [1]; −R1881, 0.3 μM): 0.94 | TMPRSS2 expression, agonist transcription (LNCaP/AR(cs) cells [1]; −R1881, 0.3 μM): 0.99 | AMIGO2 expression, agonist transcription (LNCaP/AR(cs) cells [1]; −R1881, 1 μM): 0.69 | BDNF expression, agonist transcription (LNCaP/AR(cs) cells [1]; −R1881, 1 μM): 0.93 | CAM2KN1 expression, agonist transcription (LNCaP/AR(cs) cells [1]; −R1881, 1 μM): 0.76 | FASN expression, agonist transcription (LNCaP/AR(cs) cells [1]; −R1881, 1 μM): 0.40 | FKBP5 expression, agonist transcription (LNCaP/AR(cs) cells [1]; −R1881, 1 μM): 0.71 | HPGD expression, agonist transcription (LNCaP/AR(cs) cells [1]; −R1881, 1 μM): 0.56 | NCAPD3 expression, agonist transcription (LNCaP/AR(cs) cells [1]; −R1881, 1 μM): 0.74 | NKX3.1 expression, agonist transcription (LNCaP/AR(cs) cells [1]; −R1881, 1 μM): 0.68 | NOV expression, agonist transcription (LNCaP/AR(cs) cells [1]; −R1881, 1 μM): 1.00 | ORM1 expression, agonist transcription (LNCaP/AR(cs) cells [1]; −R1881, 1 μM): 1.79 | PLD1 expression, agonist transcription (LNCaP/AR(cs) cells [1]; −R1881, 1 μM): 0.66 | PSA expression, agonist transcription (LNCaP/AR(cs) cells [1]; −R1881, 1 μM): 0.49 | SLUG expression, agonist transcription (LNCaP/AR(cs) cells [1]; −R1881, 1 μM): 0.42 | STEAP4 expression, agonist transcription (LNCaP/AR(cs) cells [1]; −R1881, 1 μM): 0.77 | TMPRSS2 expression, agonist transcription (LNCaP/AR(cs) cells [1]; −R1881, 1 μM): 0.64 | AMIGO2 expression, agonist transcription (LNCaP/AR(cs) cells [1]; −R1881, 3 μM): 0.89 | BDNF expression, agonist transcription (LNCaP/AR(cs) cells [1]; −R1881, 3 μM): 1.03 | CAM2KN1 expression, agonist transcription (LNCaP/AR(cs) cells [1]; −R1881, 3 μM): 0.99 | FASN expression, agonist transcription (LNCaP/AR(cs) cells [1]; −R1881, 3 μM): 0.42 | FKBP5 expression, agonist transcription (LNCaP/AR(cs) cells [1]; −R1881, 3 μM): 0.91 | HPGD expression, agonist transcription (LNCaP/AR(cs) cells [1]; −R1881, 3 μM): 0.78 | NCAPD3 expression, agonist transcription (LNCaP/AR(cs) cells [1]; −R1881, 3 μM): 0.73 | NKX3.1 expression, agonist transcription (LNCaP/AR(cs) cells [1]; −R1881, 3 μM): 0.73 | NOV expression, agonist transcription (LNCaP/AR(cs) cells [1]; −R1881, 3 μM): 1.11 | ORM1 expression, agonist transcription (LNCaP/AR(cs) cells [1]; −R1881, 3 μM): 1.20 | PLD1 expression, agonist transcription (LNCaP/AR(cs) cells [1]; −R1881, 3 μM): 0.88 | PSA expression, agonist transcription (LNCaP/AR(cs) cells [1]; −R1881, 3 μM): 0.58 | SLUG expression, agonist transcription (LNCaP/AR(cs) cells [1]; −R1881, 3 μM): 0.52 | STEAP4 expression, agonist transcription (LNCaP/AR(cs) cells [1]; −R1881, 3 μM): 1.05 | TMPRSS2 expression, agonist transcription (LNCaP/AR(cs) cells [1]; −R1881, 3 μM): 1.04 | AMIGO2 expression, agonist transcription (LNCaP/AR(cs) cells [1]; −R1881, 10 μM): 0.65 | BDNF expression, agonist transcription (LNCaP/AR(cs) cells [1]; −R1881, 10 μM): 1.03 | CAM2KN1 expression, agonist transcription (LNCaP/AR(cs) cells [1]; −R1881, 10 μM): 0.78 | FASN expression, agonist transcription (LNCaP/AR(cs) cells [1]; −R1881, 10 μM): 0.41 | FKBP5 expression, agonist transcription (LNCaP/AR(cs) cells [1]; −R1881, 10 μM): 0.75 | HPGD expression, agonist transcription (LNCaP/AR(cs) cells [1]; −R1881, 10 μM): 0.61 | NCAPD3 expression, agonist transcription (LNCaP/AR(cs) cells [1]; −R1881, 10 μM): 0.74 | NKX3.1 expression, agonist transcription (LNCaP/AR(cs) cells [1]; −R1881, 10 μM): 0.85 | NOV expression, agonist transcription (LNCaP/AR(cs) cells [1]; −R1881, 10 μM): 0.98 | ORM1 expression, agonist transcription (LNCaP/AR(cs) cells [1]; −R1881, 10 μM): 0.97 | PLD1 expression, agonist transcription (LNCaP/AR(cs) cells [1]; −R1881, 10 μM): 0.65 | PSA expression, agonist transcription (LNCaP/AR(cs) cells [1]; −R1881, 10 μM): 0.61 | SLUG expression, agonist transcription (LNCaP/AR(cs) cells [1]; −R1881, 10 μM): 0.56 | STEAP4 expression, agonist transcription (LNCaP/AR(cs) cells [1]; −R1881, 10 μM): 0.56 | TMPRSS2 expression, agonist transcription (LNCaP/AR(cs) cells [1]; −R1881, 10 μM): 0.62 | AMIGO2 expression, agonist transcription (LNCaP/AR(cs) cells [1]; −R1881, 30 μM): 2.41 | BDNF expression, agonist transcription (LNCaP/AR(cs) cells [1]; −R1881, 30 μM): 1.80 | CAM2KN1 expression, agonist transcription (LNCaP/AR(cs) cells [1]; −R1881, 30 μM): 1.56 | FASN expression, agonist transcription (LNCaP/AR(cs) cells [1]; −R1881, 30 μM): 1.30 | FKBP5 expression, agonist transcription (LNCaP/AR(cs) cells [1]; −R1881, 30 μM): 1.87 | HPGD expression, agonist transcription (LNCaP/AR(cs) cells [1]; −R1881, 30 μM): 1.86 | NCAPD3 expression, agonist transcription (LNCaP/AR(cs) cells [1]; −R1881, 30 μM): 1.34 | NKX3.1 expression, agonist transcription (LNCaP/AR(cs) cells [1]; −R1881, 30 μM): 2.24 | NOV expression, agonist transcription (LNCaP/AR(cs) cells [1]; −R1881, 30 μM): 2.07 | ORM1 expression, agonist transcription (LNCaP/AR(cs) cells [1]; −R1881, 30 μM): 1.35 | PLD1 expression, agonist transcription (LNCaP/AR(cs) cells [1]; −R1881, 30 μM): 1.33 | PSA expression, agonist transcription (LNCaP/AR(cs) cells [1]; −R1881, 30 μM): 1.13 | SLUG expression, agonist transcription (LNCaP/AR(cs) cells [1]; −R1881, 30 μM): 1.36 | STEAP4 expression, agonist transcription (LNCaP/AR(cs) cells [1]; −R1881, 30 μM): 1.01 | TMPRSS2 expression, agonist transcription (LNCaP/AR(cs) cells [1]; −R1881, 30 μM): 2.78 | Effect on LNCaP/AR(cs) xenograft tumors (Example 1) ([2]; 30 mg/kg QD orally, castrated SHO mice, initial response): induced tumor regression | Anti-tumor activity in the LNCaP/AR(cs) model (Example 14) ([2]; 30 mg/kg/day oral gavage, castrate male mice): robust anti-tumor activity | viability at 0.0001 µM (LNCaP/AR(cs) cells [3]; Homo sapiens, LNCaP/AR, 168 h, read-out: Antagonist Proliferation Assay (% Viability)): < 30% | Agonist Proliferation Assay (% Viability) (LNCaP/AR(cs) cells [3]; LNCaP/AR(cs), [Antagonists] = 10 μM, 7 days): + (‘+’ = <30) | viability at 0.0001 µM (LNCaP cells; Homo sapiens, 168 h, read-out: Antagonist Proliferation Assay (% Viability)): < 30% | Agonist Proliferation Assay (% Viability) (LNCaP cells; [Antagonists] = 10 μM, 7 days): + (‘+’ = <30)
